Where two headings read alike, the source gives them in different places. Each block holds one compound with its values, some of them ahead of it.
Biological target: HDAC1 (Homo sapiens, UniProt Q13547)
Experiment: Chemoproteomic competition pulldown assay
Type: binding
Parameters: endogenous in cells; host or cells: SW620, MV4-11, A549 lysates
Conditions: for Kd: read-out: pKdapp (converted)
Method: To identify proteins directly bound by lipoic acid, we employed a chemoproteomic competition assay. Briefly, (R/S)-LA was immobilized on sepharose beads via an amidation reaction to form an affinity matrix (abbreviated as iL; Fig. 1a). This affinity matrix can be incubated with cell lysate to pull down potential LA or LM target proteins and identify these targets via bottom-up proteomics. In a competition assay, free LA or LM were incubated with lysate at different concentrations before pulling down and quantifying target proteins. […] (Fig. 1b, see “Methods” for details). […] The lysate buffer used in this assay contains 1 mM DTT to mimic the intracellular reductive milieu and to reduce lipoic acid and LM. […] Additional competition assays performed in lung adenocarcinoma cell A549 lysate also identified HDAC1, HDAC2, and HDAC6 as targets (Supplementary Fig. 1b). Amongst the three cell lines tested, HDACs were the only confidently identified targets across the 1500–3000 proteins quantified in these assays. […] We validated the results by analogous pulldown competition assays using two other affinity matrices prepared via the immobilization of either the HDAC inhibitor Quisinostat (iQ) and an analog of the class IIa HDAC inhibitor Bürli’s 31[14] (iC)[12]. We have previously shown that these affinity matrices specifically bind to the active sites of HDACs and have used them for HDACi selectivity profiling. Indeed, binding of (R/S)-LA and (R/S)-LM to HDAC1, HDAC2, HDAC3, HDAC6, and, to a lesser extent, HDAC8 was confirmed in these assays (Supplementary Fig. 1c, d). No binding to class IIa HDACs or the recently discovered common HDAC inhibitor off-target MBLAC2 was observed (Supplementary Fig. 1e)[12]. […] This observation might reflect electrostatic repulsion between the HDAC10 active site gate-keeper glutamic acid residues[15],[16] and the terminal carboxylic acid of LA.
To assess the degree of protein depletion from lysates by the affinity matrix, a second pulldown (PDPD) with fresh beads was performed using the unbound protein fraction from the vehicle control flow through. The beads were washed (1 × 1 mL of lysis buffer without inhibitors and only 0.4% Igepal, 2 × 2 mL of lysis buffer without inhibitors and only 0.2% Igepal), and captured proteins were denatured with 8 M urea buffer, alkylated with 55 mM chloroacetamide and digested with Trypsin according to standard procedures. The resulting peptides were desalted on a C18 filter plate (Sep-Pak® tC18 µElution Plate, Waters), vacuum dried, and stored at −20 °C until LC–MSMS measurement.
For the competition assays, relative binding was calculated based on the protein intensity ratio to the DMSO control for every single inhibitor concentration. EC50 values were derived from a four-parameter log-logistic regression with variable slope (constrain: bottom > 0). The obtained EC50 values were multiplied with a protein-dependent correction factor (cf), resulting in the apparent Kd value (Kd^app). The correction factor is determined by calculating the ratio of the protein intensity of two consecutive pulldowns of the vehicle control sample[13]. Targets of the inhibitors were annotated manually according to published procedures[12],[46],[47]. […] Additionally, the number of unique peptides and MSMS counts per condition were taken into account. Positive target binding across several independent experiments performed with different cell lysates further substantiated our confidence for a true positive drug-target binding event.

[1] = iQ, SW620 lysate, log10 M -3.52288
[2] = iQ, SW620 lysate, log10 M -4.52288
[3] = iQ, SW620 lysate, log10 M -5.52288
[4] = iQ, SW620 lysate, log10 M -6.52288

Sequence of HDAC1 (Q13547 whole entry): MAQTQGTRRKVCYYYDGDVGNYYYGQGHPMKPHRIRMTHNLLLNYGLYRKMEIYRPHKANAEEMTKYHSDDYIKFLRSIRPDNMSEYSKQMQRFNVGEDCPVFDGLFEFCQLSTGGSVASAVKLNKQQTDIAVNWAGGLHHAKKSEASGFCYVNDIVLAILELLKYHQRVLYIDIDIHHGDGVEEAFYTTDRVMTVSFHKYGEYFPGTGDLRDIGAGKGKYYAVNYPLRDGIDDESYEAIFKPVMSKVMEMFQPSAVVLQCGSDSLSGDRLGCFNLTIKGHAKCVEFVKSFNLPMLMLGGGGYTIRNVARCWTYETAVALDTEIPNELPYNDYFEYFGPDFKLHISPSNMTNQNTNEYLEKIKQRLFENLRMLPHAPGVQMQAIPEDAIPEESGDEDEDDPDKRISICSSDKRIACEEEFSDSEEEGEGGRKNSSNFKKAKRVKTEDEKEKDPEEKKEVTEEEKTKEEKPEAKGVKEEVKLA

Compound: O=C(O)CCCCC1CCSS1 (racemic) [(R/S)-LA, (R/S)-lipoic acid]
Kd (iL, A549): 1 µM
relative binding vs DMSO (iL, A549 lysate, log10 M -4): 0.3621
relative binding vs DMSO (iL, A549 lysate, log10 M -4.52288): 0.1828
relative binding vs DMSO (iL, A549 lysate, log10 M -5): 0.2687
relative binding vs DMSO (iL, A549 lysate, log10 M -5.52288): 0.5244
relative binding vs DMSO (iL, A549 lysate, log10 M -6): 0.7392
relative binding vs DMSO (iL, A549 lysate, log10 M -6.52288): 0.8303
relative binding vs DMSO (iL, A549 lysate, log10 M -7.52288): 1.235
relative binding vs DMSO (iL, A549 lysate, log10 M -8): 1.138
relative binding vs DMSO (iL, A549 lysate, log10 M -8.52288): 1.054
Kd (iL, SW620): 7.94 µM
relative binding vs DMSO (iL, SW620 lysate, log10 M -3.52288): 0.1153
relative binding vs DMSO (iL, SW620 lysate, log10 M -4): 0.1408
relative binding vs DMSO (iL, SW620 lysate, log10 M -4.52288): 0.5904
relative binding vs DMSO (iL, SW620 lysate, log10 M -5): 0.9976
relative binding vs DMSO (iL, SW620 lysate, log10 M -5.52288): 0.8296
relative binding vs DMSO (iL, SW620 lysate, log10 M -6): 0.9942
relative binding vs DMSO (iL, SW620 lysate, log10 M -6.52288): 0.9252
relative binding vs DMSO (iL, SW620 lysate, log10 M -7): 1.135
Kd (iQ, SW620): 25.1 µM
relative binding vs DMSO [1]: 0.2247
relative binding vs DMSO (iQ, SW620 lysate, log10 M -4): 0.2525
relative binding vs DMSO [2]: 0.6007
relative binding vs DMSO (iQ, SW620 lysate, log10 M -5): 0.7446
relative binding vs DMSO [3]: 0.8354
relative binding vs DMSO (iQ, SW620 lysate, log10 M -6): 0.8396
relative binding vs DMSO [4]: 0.9165
relative binding vs DMSO (iQ, SW620 lysate, log10 M -7): 0.8126

relative binding vs DMSO (iL, MV4-11 lysate, log10 M -3.52288): 0.1265
relative binding vs DMSO (iL, MV4-11 lysate, log10 M -4): 0.2225
relative binding vs DMSO (iL, MV4-11 lysate, log10 M -4.52288): 0.3978
relative binding vs DMSO (iL, MV4-11 lysate, log10 M -5): 0.749
relative binding vs DMSO (iL, MV4-11 lysate, log10 M -5.52288): 0.6057
relative binding vs DMSO (iL, MV4-11 lysate, log10 M -6): 0.6823
relative binding vs DMSO (iL, MV4-11 lysate, log10 M -6.52288): 0.771
relative binding vs DMSO (iL, MV4-11 lysate, log10 M -7): 0.9295
Kd (iL, MV411): 10 µM
Kd (iL, SW620): 12.6 µM
Kd (iQ, SW620): 20 µM
relative binding vs DMSO [1]: 0.1684
relative binding vs DMSO (iQ, SW620 lysate, log10 M -4): 0.2856
relative binding vs DMSO [2]: 0.6671
relative binding vs DMSO (iQ, SW620 lysate, log10 M -5): 1.011
relative binding vs DMSO [3]: 0.8661
relative binding vs DMSO (iQ, SW620 lysate, log10 M -6): 1.096
relative binding vs DMSO [4]: 1.037
relative binding vs DMSO (iQ, SW620 lysate, log10 M -7): 1.154
Compound: NC(=O)CCCCC1CCSS1 (racemic) [(R/S)-LM, (R/S)-lipoamide]

Source: article PMC10272112 (Nature Communications, 2023)
